# Experimental data as given in patent US9629830B2, “EphA4 inhibitors as neuroprotective agents” (The Hong Kong University of Science and Technology, priority 2013, dated 2017).
# Entries after “also recorded” stand apart in the source; their conditions may differ. Read-outs that look alike come from different tables or passages of the source.
# What was measured:
# EphA4 = target: T1, EphA4 (Rattus norvegicus, UniProt D3ZZK3); assay: Ephrin-A1-induced EphA4 cluster assay in cultured hippocampal neurons; type: cell-based; details: cultured hippocampal neurons 3 DIV, different concentrations
# T1 construct: endogenous in cells; host or cells: primary rat cortical neurons (A5), primary rat hippocampal neurons (A7)
# T1 sequence (D3ZZK3 20-986): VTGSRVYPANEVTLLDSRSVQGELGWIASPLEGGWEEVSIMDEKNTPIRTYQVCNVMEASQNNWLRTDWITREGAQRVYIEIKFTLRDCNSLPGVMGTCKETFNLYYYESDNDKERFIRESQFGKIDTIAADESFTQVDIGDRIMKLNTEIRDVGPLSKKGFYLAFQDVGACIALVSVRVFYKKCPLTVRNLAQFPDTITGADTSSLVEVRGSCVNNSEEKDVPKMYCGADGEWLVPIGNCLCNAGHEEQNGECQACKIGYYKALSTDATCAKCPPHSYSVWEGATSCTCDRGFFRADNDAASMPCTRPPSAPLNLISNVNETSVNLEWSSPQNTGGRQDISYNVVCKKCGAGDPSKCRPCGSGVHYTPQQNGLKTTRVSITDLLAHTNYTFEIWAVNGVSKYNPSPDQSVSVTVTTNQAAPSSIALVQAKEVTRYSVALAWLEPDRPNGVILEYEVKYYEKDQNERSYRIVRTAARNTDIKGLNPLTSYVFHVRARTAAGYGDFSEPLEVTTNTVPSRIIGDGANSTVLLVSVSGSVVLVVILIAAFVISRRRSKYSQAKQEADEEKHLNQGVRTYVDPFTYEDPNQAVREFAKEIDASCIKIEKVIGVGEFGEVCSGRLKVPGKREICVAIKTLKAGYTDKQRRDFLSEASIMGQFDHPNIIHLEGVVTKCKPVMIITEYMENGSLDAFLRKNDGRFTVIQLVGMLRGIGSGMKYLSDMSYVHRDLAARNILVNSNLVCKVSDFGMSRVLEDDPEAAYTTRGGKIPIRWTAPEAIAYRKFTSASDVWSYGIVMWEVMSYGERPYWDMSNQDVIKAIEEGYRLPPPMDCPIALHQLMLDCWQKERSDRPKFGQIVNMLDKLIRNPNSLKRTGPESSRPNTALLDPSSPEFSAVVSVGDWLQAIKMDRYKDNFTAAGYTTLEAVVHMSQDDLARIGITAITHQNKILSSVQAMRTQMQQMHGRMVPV
# Protocol: For EphA4 clustering, neurons were stained with anti-EphA4 and anti-Tau-1 antibodies. For the growth cone collapse assay, neurons were stained with Alexa Fluor 555-conjugated phalloidin (Molecular Probes) for filamentous actin and anti-Tau-1 antibody for axons. Collapsed growth cones were scored in a double-blinded manner. The experiments were repeated at least 3 times, and >50 neurons were analyzed for each experiment. Data are presented as mean±SEM.
# Rat hippocampal neurons were seeded on 48-well plates coated with poly-D-lysine (50 μg/mL) at 6000 cells per well. Neurons were incubated with Neurobasal medium (Invitrogen) supplemented with 2% B27 (Invitrogen). […] Neurons were then immunostained with anti-EphA4 and anti-Tau-1 antibodies. The cellular imaging and quantification of EphA4 clusters was performed using IN Cell Analyzer 6000 high content assay system (GE Healthcare). EphA4 clusters were quantified by calculating the proportion of total area of EphA4 clusters on axons against Tau positive area. Statistical analysis was performed with one-way ANOVA followed by Newman-Keuls Multiple Comparison Test (Prism 5 GraphPad Software).
# APP/PS1 mice = assay: Amyloid plaque deposition and microglial activation in APP/PS1 mice (immunohistochemistry); type: in vivo, mouse
# Protocol: For immunohistochemical analysis, mice were anesthetised, transcardially perfused with saline followed by 4% paraformaldehyde (pH 7.4), and the brains were removed^66. After overnight postfixation and a series of cryoprotection, the brains were coronally sectioned at a thickness of 20 μm using a cryostat (Microm HM 560, Thermo Scientific). The sections were stained with β-amyloid (1:200) and Iba1 (1:500) antibodies overnight at 4° C., followed by incubation with appropriate fluorescence-conjugated secondary antibodies and mounted in Hydromount (National diagnostics). Images were taken with a Leica DMRA microscope. For 3,3-diaminobenzidine (DAB) staining, the sections were rehydrated and subjected to antigen retrieval. […]
# Images from the same experiment were obtained using identical acquisition settings, and images were analyzed with Metamorph software (Meta Image Series 7.5, Universal Imaging Corp.)^24,58. For quantifying the EphA4 and PSD-95 clusters, two dendrite segments from each neuron were analyzed for quantification. […] The basal threshold values for the background of all images in each experiment were measured. […] To measure the density of clusters in dendrites, the images were first thresholded to include the clusters with intensity 2-fold greater than the signal of an adjacent dendrite, and the total number of clusters and dendrite length were measured automatically. […]
# [1] = Blood and brain penetration assay after single oral administration; type: in vivo, mouse; details: for half-life: C57Bl/6, mouse, po, 50 mg/kg
# Protocol: Five microliters of sample was injected and eluted by the following program at the flow rate of 0.6 ml/min: 0-4.0 min, 10˜35% ACN; 4.0-4.1 min, 100% ACN; 7.0-7.1 min, 100-10% ACN, 7.1-10 min, 10% ACN. Detection of Rhy was carried out with the positive ionization mode. The ESI conditions were as follows: declustering potential 120 V, entrance potential 10 V, collision cell exit potential 12 V, collision energies 38 V, curtain gas 50 (arbitrary units), collision gas 10 (arbitrary units), ion spray voltage […], source temperature 500° C., ion source gas 1:45 (arbitrary units), ion source gas 2:60 (arbitrary units).
# Male C57Bl/6 mice (16-week-old) were obtained from the Hong Kong University of Science and Technology (HKUST) Animal Care Facility and acclimatized in the laboratory a week before the study. […] The procedures in this study were approved by HKUST Animal Ethics Committee and conducted in accordance with the Code of Practice and Use of Animals for Experimental Purpose.
# Plasma was obtained by centrifuging the blood at 3,800×g at 4° C. for 10 min. Mouse brains were collected after a 30-min cardiac perfusion with 0.9% saline. Whole mouse brain with the addition of 80 μL 0.9% saline was subjected to homogenization for 10 s (Precellys Minilys) at 4000 rpm with ceramic beads. […] Samples were centrifuged at 12,000×g at 4° C. for 10 min. The supernatants were transferred to a new tube and the remaining samples were subjected to another extraction. The supernatants obtained from the two extractions were pooled and evaporated to dryness. The dried samples were dissolved in 0.3 mL methanol, vortexed for 30 s followed by ultrasonication for 5 min and centrifuged at 17,900×g for 5 min. The supernatant (80 μL) was transferred into vial for UPLC-MS/MS analysis.
# [2] = mouse, single oral 50 mg/kg, rounded
smiles,measurement,setting,value
"CC[C@H]1CN2CC[C@]3(C(=O)Nc4ccccc43)[C@@H]2C[C@@H]1/C(=C\OC)C(=O)OC [Rhy, methyl (7β,16E,20α)-16-(methoxymethylene)-2-oxocorynoxan-17-oate]",ephrin-A1-induced EphA4 clustering,EphA4,reduced the ephrin-A1-induced EphA4 clustering; also recorded: abolished ephrin-A1-induced EphA4 clustering
same,amyloid plaques in cortex and hippocampus,"APP/PS1 mice; APP/PS1 mice, 10-week administration of Rhy versus water",number and total area of amyloid plaques decreased significantly
same,"plaque-associated reactive microglia, Iba1 staining",APP/PS1 mice; cortex of APP/PS1 mice administered with Rhy,significant reduction of plaque-associated reactive microglia
same,detection in plasma and brain,[1]; 10 min after single oral 50 mg/kg,readily detected
same,level of Rhy as percentage of Cmax,"[1]; after 3 h of administration, in both plasma and brain",10%
same,half-life,"[1]; male, brain, mouse, single oral 50 mg/kg, perfused brain, read-out: t1/2 in brain (converted)",1.79 ± 0.455 h
same,half-life,"[1]; male, brain, mouse, single oral 50 mg/kg, rounded, read-out: t1/2 in brain (converted)",~2 h
same,half-life,"[1]; male, plasma, mouse, single oral 50 mg/kg, read-out: t1/2 in plasma",1.35 ± 0.201 h
same,Cmax,"[1]; male, C57Bl/6, plasma, mouse, single oral 50 mg/kg",583 ± 32.9 ng/mL
same,Tmax,"[1]; male, C57Bl/6, plasma, mouse, single oral 50 mg/kg, read-out: Tmax in plasma (converted)",0.514 h
same,Tmax,"[1]; male, C57Bl/6, mouse, single oral 50 mg/kg, perfused brain, read-out: Tmax in brain (converted)",0.917 h
same,blood-brain barrier passage,"[1]; mouse, oral administration",can pass through the blood-brain barrier
same,Cmax in brain,"[1]; mouse, single oral 50 mg/kg, perfused brain",442.73±27.38 ng/brain
same,time at which brain level peaked,[1]; [2],~1 h
same,time at which plasma concentration peaked,[1]; [2],~0.5 h
same,time at which plasma concentration was reduced by 50%,[1]; [2],~1.5 h
